Laboratory results published in US10604514B2, “6-(5-membered heteroaryl)isoquinolin-3-yl carboxamides and preparation and use thereof” (Samumed, LLC, priority 2017, dated 2020).
Read-outs that look alike come from different tables or passages of the source.

Key:
[1] = system: Wnt activity (Sp5-Luc reporter in SW480 colon carcinoma cells); assay: Wnt activity screening assay (Sp5-Luc reporter gene assay); assay type: cell-based, human; settings: for EC50: Sp5-Luc reporter, SW480 cells, 36 to 48 hours
Procedure, shortened: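 SW480 cells stably carrying an Sp5 promoter (eight TCF/LEF sites)-firefly luciferase reporter were plated in DMEM with 1% FBS and treated with a 10-point, 1:3 dilution series from 10 μM (0.1% DMSO) for 36 to 48 h at 37° C. Luminescence was normalized to DMSO controls, and EC50 came from four-parameter nonlinear regression.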

GSK3β kinase = GSK3β kinase (Homo sapiens (Human), UniProt P49841); assay: GSK3β kinase assay (Ser/Thr 09 peptide Z-lyte, FRET); assay type: biochemical; settings: method text calls the value IC50;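 further: Coumarin/fluorescein emission ratio converted to percent phosphorylation against unphosphorylated (0%) and phosphorylated (100%) controls, 1 h compound incubation at room temperature, 11-point threefold dilutions from 10 µM, run in duplicate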
Procedure: Representative compounds were screened using the assay procedure for GSK30 kinase activity as described below.
Each compound is dissolved in DMSO as a 10 mM stock and used to prepare compound source plates. Serial dilution (1:3, 11-point dose-response curves from 10 M to 0.0003 μM) and compound transfer was performed using the ECHO 550 (Labcyte, Sunnyvale, Calif.) into 1536-well black-walled round bottom plates (Corning).
This is a non-radioactive assay using fluorescence resonance energy transfer (FRET) between coumarin and fluorescein to detect kinase activity which is represented as ratio of coumarin emission/fluorescein emission.
The mixture is allowed to incubate with the representative compounds for one hour at room temperature. All reactions were performed in duplicate. Unphosphorylated (“0% Control”) and phosphorylated (“100% control”) forms of Ser/Thr 18 serve as control reactions.
After incubation, diluted Development Buffer is added to the reaction and allowed to further incubate for one hour at room temperature.
The percent phosphorylation is then calculated using the following formula: [1−((Em ratio×F100%)−C100%)/((C0%−C100%)+(Em ratio×(F100%−F0%)))].
Dose-response curves are generated and inhibitory concentration (IC50) values are calculated using non-linear regression curve fit in the Dotmatics' Studies Software (Bishops Stortford, UK).

[2] = system: Tau phosphorylation at Ser396 (pSer396), SH-SY5Y cells; assay: Tau phosphorylation at Ser396 (pSer396) in SH-SY5Y cells, ELISA/western blot; assay type: cell-based, human; settings: SH-SY5Y cells, overnight (16-18 h), read-out: pSer396 Tau EC50;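 further: cell lysates probed for reduced Tau pSer396 via ELISA (colorimetric) or western blot (chemiluminescence), both with one shared pSer396 antibody, EC50 for lowering phosphorylation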
[3] = system: SW480 colon carcinoma cells; assay: Cell viability assay (CellTiter-Glo) in SW480 cells; assay type: cell-based, human; settings: for EC50: cell viability, SW480 cells, four days, CellTiter-Glo; for inhibition at 10 µM: SW480, read-out: percent inhibition at 10 μM;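 on all read-outs here: SW480 cells stably carrying an Sp5-luciferase TCF/LEF reporter, luminescent ATP signal as viability measure, DMSO-treated cells as control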
[4] = system: LL29 cells (primary human fibroblasts derived from IPF patients), α-smooth muscle actin; assay: Inhibition of fibrotic process: αSMA in TGF-β1-treated primary human fibroblasts from IPF patients (LL29 cells); assay type: cell-based; settings: for EC50: % αSMA-positive LL29 cells, TGF-β1 20 ng/mL, 4 days; for inhibition at 10 µM: read-out: percent inhibition at 10 μM
Procedure, shortened: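 IPF-patient lung fibroblasts (LL29) were stimulated with TGF-β1 (20 ng/mL) in 1% FBS medium with compound (11-point 1:2 series, 0.1% DMSO) for 4 days at 37 °C. Fixed cells were immunostained for αSMA and imaged, excluding SYTOX-positive dead cells. The % αSMA-positive cells was normalized to TGF-β1/DMSO control wells.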

IL-6 = IL-6 inhibition in LPS-stimulated human peripheral blood mononuclear cells (HTRF); assay type: cell-based; settings: for inhibition at 10 µM: read-out: percent value in parentheses below EC50 >10; for EC50: IL-6, LPS-stimulated huPBMCs, HTRF
Procedure, shortened: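 Fresh human PBMCs (5000 cells/well, 1% FBS RPMI) preincubated with compound (10-point 1:3 series from 10 μM, 0.25% DMSO) 2 h at 37 °C, then stimulated with 50 ng/mL E. coli LPS for 22 h. IL-6 by HTRF 665/620 ratio; DMSO-normalized, EC50 from 4-parameter fit.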

DYRK1A kinase = DYRK1A kinase (Homo sapiens (Human), UniProt Q13627); assay: DYRK1A kinase assay (Ser/Thr 18 peptide Z-lyte, FRET)
Procedure: Each compound was dissolved in DMSO as a 10 mM stock and used to prepare compound source plates.
This is a non-radioactive assay using fluorescence resonance energy transfer (FRET) between coumarin and fluorescein to detect kinase activity which is represented as a ratio of coumarin emission/fluorescein emission.
The mixture was allowed to incubate with the representative compounds for one hour at room temperature. All reactions were performed in duplicate. Unphosphorylated (“0% Control”) and phosphorylated (“100% control”) forms of Ser/Thr 18 served as control reactions. Additionally, an 11-point dose-response curve of Staurosporine (1 uM top) was run to serve as a positive compound control.
After incubation, Development Reagent A was diluted in Development Buffer then added to the reaction and allowed to further incubate for one hour at room temperature.
The percent phosphorylation was then calculated using the following formula: [1−((Em ratio×F100%)−C100%)/((C0%−C100%)+(Em ratio×(F100%−F0%)))]. Dose-response curves were generated and inhibitory concentration (IC50) values were calculated using non-linear regression curve fit in the Dotmatics' Studies Software (Bishops Stortford, UK).

GSK3β kinase, sequence (P49841 whole entry): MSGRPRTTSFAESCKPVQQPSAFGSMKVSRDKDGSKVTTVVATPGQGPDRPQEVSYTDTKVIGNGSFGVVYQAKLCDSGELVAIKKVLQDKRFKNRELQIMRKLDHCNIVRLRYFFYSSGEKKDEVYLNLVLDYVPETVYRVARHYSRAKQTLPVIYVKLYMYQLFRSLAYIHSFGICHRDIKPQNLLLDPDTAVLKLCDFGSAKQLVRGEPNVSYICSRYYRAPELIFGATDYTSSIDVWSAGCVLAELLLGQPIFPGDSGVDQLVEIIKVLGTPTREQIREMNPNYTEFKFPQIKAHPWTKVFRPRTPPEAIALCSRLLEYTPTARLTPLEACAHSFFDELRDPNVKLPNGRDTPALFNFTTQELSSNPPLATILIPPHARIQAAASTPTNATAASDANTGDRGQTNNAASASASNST

Compound | EC50 ([1]; Homo sapiens) | EC50 (GSK3β kinase) | EC50 ([2]; Homo sapiens) | EC50 ([3]; Homo sapiens, 96 h) | inhibition at 10 µM ([3]; Homo sapiens) | EC50 ([4]; Homo sapiens, Fibroblast, 96 h) | inhibition at 10 µM ([4]; Homo sapiens, Fibroblast) | inhibition at 10 µM (IL-6; Homo sapiens, PBMC) | EC50 (IL-6; Homo sapiens, PBMC) | EC50 (DYRK1A kinase) | inhibition at 10 µM ([1]; Homo sapiens, SW480, read-out: percent inhibition at 10 μM) | EC50 [1] | EC50 [2] | EC50 [3] | EC50 [4] | EC50 (IL-6) | EC50 (DYRK1A kinase; DYRK1A kinase, method text calls the value IC50)
Cn1cc(-c2ccc3cnc(NC(=O)c4cc[n+]([O-])c(N5CC[N+](C)([O-])CC5)c4)cc3c2)nn1 [Compound 225, 1-methyl-4-(4-((6-(1-methyl-1H-1,2,3-triazol-4-yl)isoquinolin-3-yl)carbamoyl)-1-oxidopyridin-2-yl)piperazine 1-oxide] | 3850 nM | 407 nM | > 10000 nM | > 10000 nM | 28.7% | > 10000 nM | 24.8% | 6.9% | > 10000 nM | 2 nM |  |  |  |  |  |  | 
[2H]C([2H])([2H])[N+]1([O-])CCN(c2cc(C(=O)Nc3cc4cc(-c5cn(C)nn5)ccc4cn3)ccn2)CC1 [Compound 226, 1-(Methyl-d3)-4-(4-((6-(1-methyl-1H-1,2,3-triazol-4-yl)isoquinolin-3-yl)carbamoyl)pyridin-2-yl)piperazine 1-oxide] | > 10000 nM | 1190 nM | > 10000 nM | > 10000 nM | 46.9% | > 10000 nM | 33.2% | 4.5% | > 10000 nM | 4 nM | 31.6% |  |  |  |  |  | 
trans-N-(6-(2-methyloxazol-5-yl)isoquinolin-3-yl)-4-((propan-2-yl-1,1,1,3,3,3-d6)amino)cyclohexane-1-carboxamide [Compound 141] |  | 50 nM |  |  |  |  |  |  |  |  |  | 2780 nM | 594 nM | 1570 nM | 321 nM | 388 nM | 9 nM
